Each block holds one molecule with its values, some of them ahead of it.
Tested on: 997726-040-R-J2-PDC tumor spheroids, viability
Test: Anticancer human tumor 997726-040-R-J2-PDC patient-derived squamous cell lung carcinoma cell line growth inhibition [PI3K]
Conditions: spheroids with HUVEC and MSC; for IC50: curve of first compound; for viability, T/C: stronger effect = lower value
Summary of the method: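 Three cell types, namely tumor cells, endothelial cells and mesenchymal stem cells, formed each spheroid. Combinations with four PI3K inhibitors were screened at clinically achievable concentrations decreasing by half-log, and spheroid viability was recorded.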
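Further: spheroids exposed to compounds for seven days before readout.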

IC50 (second compound 0.0316 µM): 496 nM | IC50 (second compound 0.1 µM): 3510 nM | IC50 (second compound 0.316 µM): 3300 nM | IC50 (second compound 1 µM): 31.6 nM | IC50 (second compound 3.16 µM): < 31.6 nM | IC50 (second compound 10 µM): < 31.6 nM
SMILES: CC1(C)CCC(Nc2ncc(C(F)(F)F)c(-c3c[nH]c4c(P(C)(C)=O)c(C#N)ccc34)n2)CN1 (centres undefined) + CC(Nc1ncnc2nc[nH]c12)c1cc2cccc(Cl)c2c(=O)n1-c1ccccc1
viability, T/C (second compound 0.0316 µM, first compound 0.0316 µM): 48.9% | viability, T/C (second compound 0.0316 µM, first compound 0.1 µM): 45.7% | viability, T/C (second compound 0.0316 µM, first compound 0.316 µM): 50% | viability, T/C (second compound 0.0316 µM, first compound 1 µM): 59.5% | viability, T/C (second compound 0.0316 µM, first compound 3.16 µM): 65.9% | viability, T/C (second compound 0.0316 µM, first compound 10 µM): 29.6% | viability, T/C (second compound 0.1 µM, first compound 0.0316 µM): 53.8% | viability, T/C (second compound 0.1 µM, first compound 0.1 µM): 51.6% | viability, T/C (second compound 0.1 µM, first compound 0.316 µM): 49.3% | viability, T/C (second compound 0.1 µM, first compound 1 µM): 48.5% | viability, T/C (second compound 0.1 µM, first compound 3.16 µM): 55.5% | viability, T/C (second compound 0.1 µM, first compound 10 µM): 33% | viability, T/C (second compound 0.316 µM, first compound 0.0316 µM): 52.3% | viability, T/C (second compound 0.316 µM, first compound 0.1 µM): 47.6% | viability, T/C (second compound 0.316 µM, first compound 0.316 µM): 45.3% | viability, T/C (second compound 0.316 µM, first compound 1 µM): 53.3% | viability, T/C (second compound 0.316 µM, first compound 3.16 µM): 56% | viability, T/C (second compound 0.316 µM, first compound 10 µM): 26.5% | viability, T/C (second compound 1 µM, first compound 0.0316 µM): 49.2% | viability, T/C (second compound 1 µM, first compound 0.1 µM): 46.2% | viability, T/C (second compound 1 µM, first compound 0.316 µM): 45.2% | viability, T/C (second compound 1 µM, first compound 1 µM): 44.7% | viability, T/C (second compound 1 µM, first compound 3.16 µM): 52.2% | viability, T/C (second compound 1 µM, first compound 10 µM): 27.3% | viability, T/C (second compound 3.16 µM, first compound 0.0316 µM): 42.1% | viability, T/C (second compound 3.16 µM, first compound 0.1 µM): 40.7% | viability, T/C (second compound 3.16 µM, first compound 0.316 µM): 36% | viability, T/C (second compound 3.16 µM, first compound 1 µM): 39.3% | viability, T/C (second compound 3.16 µM, first compound 3.16 µM): 53.8% | viability, T/C (second compound 3.16 µM, first compound 10 µM): 21.7% | viability, T/C (second compound 10 µM, first compound 0.0316 µM): 32% | viability, T/C (second compound 10 µM, first compound 0.1 µM): 29.2% | viability, T/C (second compound 10 µM, first compound 0.316 µM): 31.5% | viability, T/C (second compound 10 µM, first compound 1 µM): 37.7% | viability, T/C (second compound 10 µM, first compound 3.16 µM): 39.8% | viability, T/C (second compound 10 µM, first compound 10 µM): 14.1%

IC50 (second compound 0.00316 µM): 46.1 nM | IC50 (second compound 0.01 µM): < 9.49 nM | IC50 (second compound 0.0316 µM): < 9.49 nM | IC50 (second compound 0.1 µM): < 9.49 nM | IC50 (second compound 0.316 µM): < 9.49 nM | IC50 (second compound 1 µM): < 9.49 nM
SMILES: Cn1cnc2c(F)c(Nc3ccc(Br)cc3Cl)c(C(=O)NOCCO)cc21 + COc1c(OCCCN2CCOCC2)ccc2c3n(c(=NC(=O)c4cnc(N)nc4)nc12)CCN3
viability, T/C (second compound 0.00316 µM, first compound 0.00949 µM): 60.5% | viability, T/C (second compound 0.00316 µM, first compound 0.03 µM): 55.1% | viability, T/C (second compound 0.00316 µM, first compound 0.0949 µM): 39.2% | viability, T/C (second compound 0.00316 µM, first compound 0.3 µM): 46.1% | viability, T/C (second compound 0.00316 µM, first compound 0.949 µM): 38% | viability, T/C (second compound 0.00316 µM, first compound 3 µM): 33.2% | viability, T/C (second compound 0.01 µM, first compound 0.00949 µM): 44.3% | viability, T/C (second compound 0.01 µM, first compound 0.03 µM): 43% | viability, T/C (second compound 0.01 µM, first compound 0.0949 µM): 39.1% | viability, T/C (second compound 0.01 µM, first compound 0.3 µM): 36.5% | viability, T/C (second compound 0.01 µM, first compound 0.949 µM): 28.6% | viability, T/C (second compound 0.01 µM, first compound 3 µM): 27.5% | viability, T/C (second compound 0.0316 µM, first compound 0.00949 µM): 36.6% | viability, T/C (second compound 0.0316 µM, first compound 0.03 µM): 33.4% | viability, T/C (second compound 0.0316 µM, first compound 0.0949 µM): 26.2% | viability, T/C (second compound 0.0316 µM, first compound 0.3 µM): 24.6% | viability, T/C (second compound 0.0316 µM, first compound 0.949 µM): 24.1% | viability, T/C (second compound 0.0316 µM, first compound 3 µM): 16.7% | viability, T/C (second compound 0.1 µM, first compound 0.00949 µM): 20.8% | viability, T/C (second compound 0.1 µM, first compound 0.03 µM): 20.8% | viability, T/C (second compound 0.1 µM, first compound 0.0949 µM): 15.6% | viability, T/C (second compound 0.1 µM, first compound 0.3 µM): 15.2% | viability, T/C (second compound 0.1 µM, first compound 0.949 µM): 14.7% | viability, T/C (second compound 0.1 µM, first compound 3 µM): 7.1% | viability, T/C (second compound 0.316 µM, first compound 0.00949 µM): 5.7% | viability, T/C (second compound 0.316 µM, first compound 0.03 µM): 5.13% | viability, T/C (second compound 0.316 µM, first compound 0.0949 µM): 2.49% | viability, T/C (second compound 0.316 µM, first compound 0.3 µM): 2.68% | viability, T/C (second compound 0.316 µM, first compound 0.949 µM): 1.51% | viability, T/C (second compound 0.316 µM, first compound 3 µM): 0.35% | viability, T/C (second compound 1 µM, first compound 0.00949 µM): 2.27% | viability, T/C (second compound 1 µM, first compound 0.03 µM): 1.05% | viability, T/C (second compound 1 µM, first compound 0.0949 µM): 0.66% | viability, T/C (second compound 1 µM, first compound 0.3 µM): 0.55% | viability, T/C (second compound 1 µM, first compound 0.949 µM): 0.39% | viability, T/C (second compound 1 µM, first compound 3 µM): 0.27%
